The values that follow come from patent US6528521B2, “Treatment of anti-depression drug-induced sexual dysfunction with apomorphine” (Tap Pharmaceutical Products, Inc., priority 2000, dated 2003).

The experiment relates to male patients taking selective serotonin reuptake inhibitors. The experiment in a line: Crossover home-use trial of sublingual apomorphine in male patients taking SSRIs. Type of experiment: in vivo, human. The following applies: apomorphine versus placebo. The method, then: A crossover study of 1500 patients in a home-use trial of apomorphine on male patients was performed.
In the crossover study, a 2-4 week baseline period was used to evaluate subjects. After this time, during an initial four week treatment period, subjects received either a placebo or apomorphine, without knowing whether or not they had received the active medication. The dosage was either 2, 4, 5 or 6 mg. This initial treatment period was followed by a 24-96 hour washout period, in which no medication was taken. Subsequently, a second four week treatment period, subjects who previously had received apomorphine, were given a placebo, and subjects who previously had received the placebo were given apomorphine. Subject were to attempt coitus once each week after taking a single tablet of apomorphine sublingually. After each attempt, the subject and their partner completed a sexual function questionnaire which was later evaluated and used for final statistical analysis. In the analysis, the data for patients receiving 2, 4, 5 or 6 mg dosages was pooled.

With `CN1CCc2cccc3c2[C@H]1Cc1ccc(O)c(O)c1-3` [apomorphine, (R)-5,6,6a,7-tetrahydro-6-methyl-4H-dibenzo-[de,g]quinoline-10,11-diol], the “patients on SSRI drugs able to have intercourse after taking apomorphine, relative to placebo” value is given as “twice as many”.
